Measurements reported in publication PMC4010497, “Synthesis and Evaluation of Fluorine-Substituted Phenyl Acetate Derivatives as Ultra-Short Recovery Sedative/Hypnotic Agents” (PLoS ONE, 2014).

Key:
rat = assay type: in vivo
Procedure: All tests were performed during the light period. Groups of mice, rats and rabbits were injected intravenously (lateral tail vein) over 10 s with each dose of test compound, placed in separate boxes to reduce external stimuli and assessed for the loss of righting reflex. Dosing was performed using mg/kg scheme. A set of dose levels was chosen, and depending on whether the loss of righting reflex was observed, extra doses were introduced to provide data for the loss of righting reflex over a narrow dose range to allow potency calculations. From the percentage of mice, rats and rabbits in each group showing loss of righting reflex for ≥30 s, a probit analysis (SAS Institute) was performed to obtain an HD50 for each compound with 95% confidence limits.
Immediately following the injection, the mice, rats and rabbits were tested for loss of righting reflex. […] Once a loss was observed, the interval between the loss of righting reflex and the return to righting reflex was recorded. The anesthetized animals recovered righting reflexes spontaneously. To compare the duration of LORR of each compound at equipotent doses, groups of mice, rats and rabbits were injected with each compound at 2× HD50 over 10 s.
Time to walk was the time required after righting before mice and rabbits walked from the center to the periphery of a 30-cm diameter dise.
The rotarod test was conducted to evaluate the recovery to the motor coordination. Before the LORR test, mice were trained for 2 consecutive days. Trained mice could maintain their balance on rod for more than 2 mins. After the mice could walk from the center to the periphery of a 30-cm diameter dise, they were put on the rotarod. Mice were classified as behavioral recovery when, on being placed on the rod, they could maintain their balance for 20 s. The time to behavioral recovery was the time required after mice walked from the centre to the periphery of a 30-cm diameter disc before they could maintain their balance on rod for 20 s.

GABAA receptor = assay: GABAA radioligand binding assay ([3H]EBOB); details: 50 µM compound, 0.5 nM [3H]EBOB, rat frontoparietal cortex
Procedure: All the new compounds were dissolved in 5% DMSO.
Specific binding was determined in the presence of compounds.
Membrane suspensions were thawed and centrifuged in incubation buffer at 10,000×g for 10 min and washed by a similar centrifugation. For displacement studies, membrane suspensions (5 mg original wet wt./ml) were incubated with 0.5 nM [^3H]EBOB ([…], Perkin Elmer Life Sciences, Boston, MA, USA) in the absence or presence of 50 µM of new compounds or reference drug for 2 h at 25°C. Nonspecific binding was determined in the presence of 10 µM Bicuculline. Bicuculline and picrotoxin were frequently used to determine the nonspecific binding when [3H]EBOB as radioligand [17]. Triplicate 1 ml samples were filtered on Whatman GF/B filters under vacuum with a Brandel Harvester and washed with 3×3 ml ice-cold buffer.

Compound: CCOc1cc(CC(=O)OCC(F)(F)F)ccc1OCC(=O)N(CC)CC [Compound 5j, 2,2,2-trifluoroethyl 2-(4-(2-(diethylamino)-2-oxoethoxy)-3-ethoxyphenyl)acetate]
- Duration of LORR (rat; 2× HD50 dose, mean ± SD): 66.5 ± 8.7 s
- Time to walk (rat; 2× HD50 dose, mean ± SD): 14.2 ± 5.4 s
- time to behavioral recovery (rat; 2× HD50 dose, mean ± SD): 22.8 ± 3.2 s
- HD50 (rat; IV, 95% confidence limits): 12.9 (10.6∼13.7) mg/kg
- GABAA binding (50 µmol) (Mean ± SD), percentage of inhibition (GABAA receptor): 90.5±6.9%
